Measured values taken from patent US10604739B2, “Cardiomyocyte production” (Cellular Dynamics International, Inc., priority 2009, dated 2020).

Legend:
iPS6.1 and H9-TGZ cells = assay: Meta-analysis of paired conditions with and without 50 ng/mL HGF; assay type: cell-based, human
Protocol: A meta-analysis across these experiments was performed to assess whether the inventors could detect any measurable benefit of including HGF in the induction medium. This analysis reviewed all the available experiments for paired conditions with and without 50 ng/mL HGF. […] This left 14 paired conditions (11 performed in triplicate within an experiment). To aid in this analysis, a process raw material cost model was employed to estimate the cost per million cardiomyocytes under each condition. This model used the most up-to-date raw material cost and process information available at the time (˜Jun. 1, 2009).

H9-TGZ cells = assay: H9-TGZ Growth Factor Titration #2; assay type: cell-based, human; details: HGF 0, 20, 50
Protocol: Aggregate formation and cardiac induction procedures of those iPS cells at different initial densities were performed essentially the same as described in Examples 4 except different concentrations of human HGF (hHGF) and FGF were applied to Aggregate Formation Medium, Aggregate Transition Medium and Cardiac Induction Medium.
While the iPS6.1 optimization was underway, a separate series of experiments was conducted to optimize the growth factor concentrations for the H9-TGZ cells. […] Therefore, the FGF range tested was higher than that in the recent iPS6.1 experiments. This experiment confirmed that optimum cardiomyocyte production requires 100-150 ng/mL FGF with the H9-TGZ cells (FIGS. 31A-C).

[1] = First iPS 4-corners, head-to-head pairings with purity >1%
[2] = First iPS GF matrix, head-to-head pairings with purity >1%
[3] = H9-TGZ Matrix #2, head-to-head pairings with purity >1%
[4] = H9-TGZ Matrix #2 repeat, head-to-head pairings with purity >1%
[5] = HGF Conc 50 ng/mL, 14 paired conditions
[6] = Second iPS GF matrix, head-to-head pairings with purity >1%
[7] = Total of all experiments, head-to-head pairings with purity >1%

With “HGF: human recombinant HGF (hepatic growth factor), R&D systems” the “Fraction with better CM/L @ 50 ng/mL HGF than 0” value (iPS6.1 and H9-TGZ cells; [1]) was 0/1, the “Fraction with better iPS:CM ratio @ 50 ng/mL HGF than 0” value (iPS6.1 and H9-TGZ cells; [1]) was 0/1 and the “Fraction with better CM/L @ 50 ng/mL HGF than 0” value (iPS6.1 and H9-TGZ cells; [2]) was 3/4. The “Fraction with better iPS:CM ratio @ 50 ng/mL HGF than 0” value (iPS6.1 and H9-TGZ cells; [2]) was 3/4, the “Fraction with better CM/L @ 50 ng/mL HGF than 0” value (iPS6.1 and H9-TGZ cells; [3]) was 2/4 and the “Fraction with better iPS:CM ratio @ 50 ng/mL HGF than 0” value (iPS6.1 and H9-TGZ cells; [3]) was 2/4. For the same substance, the “Fraction with better CM/L @ 50 ng/mL HGF than 0” value (iPS6.1 and H9-TGZ cells; [4]) was 0/1, the “Fraction with better iPS:CM ratio @ 50 ng/mL HGF than 0” value (iPS6.1 and H9-TGZ cells; [4]) was 0/1 and the “CM/L, Average” value (iPS6.1 and H9-TGZ cells; [5]) was 49. For the same substance, the “CM/L, Best” value (iPS6.1 and H9-TGZ cells; [5]) was 140, the “CM/L, Worst” value (iPS6.1 and H9-TGZ cells; [5]) was 1.5 and the “iPS:CM, Average” value (iPS6.1 and H9-TGZ cells; [5]) was 100. For the same substance, the “iPS:CM, Best” value (iPS6.1 and H9-TGZ cells; [5]) was 7, the “iPS:CM, Worst” value (iPS6.1 and H9-TGZ cells; [5]) was 712 and the “Fraction with better CM/L @ 50 ng/mL HGF than 0” value (iPS6.1 and H9-TGZ cells; [6]) was 2/4. The “Fraction with better iPS:CM ratio @ 50 ng/mL HGF than 0” value (iPS6.1 and H9-TGZ cells; [6]) was 2/4, the “Fraction with better CM/L @ 50 ng/mL HGF than 0” value (iPS6.1 and H9-TGZ cells; [7]) was 7/14 and the “Fraction with better iPS:CM ratio @ 50 ng/mL HGF than 0” value (iPS6.1 and H9-TGZ cells; [7]) was 7/14. For the same substance, the “Effect of HGF in cardiomyocyte production process (on average)” value (iPS6.1 and H9-TGZ cells; with vs without 50 ng/mL HGF, 14 paired conditions) was “no measurable positive or negative effect” and the “Trend in process efficiency across different HGF concentrations” value (H9-TGZ cells) was “No trend was observed in process efficiency”.
